The test system of data set [1] is H226. In words: Anti-proliferative effect, SRB test. It is filed as cell-based, human. The settings on record: H226 non-small cell lung cancer, 5 days of incubation. On the procedure:
(§1) The anti-proliferative effect of prodrugs and parent drugs was determined in vitro applying seven well-characterised human tumor cell lines and the microculture sulphorhodamine B (SRB) test. The anti-proliferative effects were determined and expressed as IC50 values, that are the (pro)drug concentrations that gave 50% inhibition when compared to control cell growth after 5 days of incubation.

Data set [2] deals with IGROV. In words: Anti-proliferative effect, SRB test. Format: cell-based, human. Particulars: IGROV ovarian cancer, 5 days of incubation. On the procedure: as §1
Data set [3] relates to EVSA-T. In words: Anti-proliferative effect, SRB test. Format: cell-based, human. The settings on record: EVSA-T breast cancer, 5 days of incubation. The protocol:
as §1

Data set [4] concerns A498. In words: Anti-proliferative effect, SRB test. Format: cell-based, human. The settings on record: A498 renal cancer, 5 days of incubation. The protocol: as §1
Data set [5] relates to WIDR. In words: Anti-proliferative effect, SRB test. It is filed as cell-based, human. The settings on record: WIDR colon cancer, 5 days of incubation. On the procedure:
as §1

Data set [6] has as its system MCF-7. In words: Anti-proliferative effect, SRB test. It is filed as cell-based, human. Particulars: MCF-7 breast cancer, 5 days of incubation. The protocol: as §1
The test system of data set [7] is M19. In words: Anti-proliferative effect, SRB test. It is filed as cell-based, human. Particulars: M19 melanoma, 5 days of incubation. The protocol:
as §1

Data set [8] in a line: Stability of prodrugs in 0.1 M Tris/HCl buffer (pH 7.3). The settings on record: TLC.
The conditions of data set [9]: absence of zinc powder, methanol/acetic acid, same conditions. The protocol: 36 mg of 2′-[nitrocinnamyl carbonate]-paclitaxel 1 was dissolved in 8 ml methanol and 2 ml acetic acid. A catalytic amount of zinc powder was added and the red mixture was stirred for 12 h. Dichloromethane was added and the organic layer was washed with saturated sodium bicarbonate, 0.5 N potassium bisulfate, brine, and water and dried over anhydrous sodium sulfate.

The mark [10] stands for this setting: 150 μM in 0.1 M Tris/HCl buffer (pH 7.3), 3 days.

Values after ≈ are worked out from the molar mass of the structure shown.

Turning to `COc1cccc2c1C(=O)c1c(O)c3c(c(O)c1C2=O)C[C@@](O)(C(=O)CO)C[C@@H]3O[C@H]1C[C@H](N)[C@H](O)[C@H](C)O1` [Doxorubicin, doxorubicin, reference compound], the ID50 in [1] was found to be 0.199 µg/mL (≈ 0.366 µM); in data set [2], 0.06 µg/mL (≈ 0.11 µM); in [3] it was 0.008 µg/mL (≈ 0.0147 µM); in data set [4], 0.09 µg/mL (≈ 0.166 µM); in data set [5], 0.011 µg/mL (≈ 0.0202 µM); in data set [6], 0.01 µg/mL (≈ 0.0184 µM). In data set [7], the ID50 stood at 0.016 µg/mL (≈ 0.0294 µM).
Turning to `CC(=O)O[C@H]1C(=O)[C@@]2(C)[C@H]([C@H](OC(=O)c3ccccc3)[C@]3(O)C[C@H](OC(=O)[C@H](O)[C@@H](NC(=O)c4ccccc4)c4ccccc4)C(C)=C1C3(C)C)[C@]1(OC(C)=O)CO[C@@H]1C[C@@H]2O` [Paclitaxel, paclitaxel, reference compound], the ID50 in [1] was less than 0.003 µg/mL; in [2] it was 0.01 µg/mL (≈ 0.0117 µM); in [3] it was less than 0.003 µg/mL; in [4] it was less than 0.003 µg/mL; in data set [5] it was less than 0.003 µg/mL; in data set [6] it was less than 0.003 µg/mL. The compound further came in with an ID50 in data set [7] of less than 0.003 µg/mL.
For the compound “2′-[H-D-Ala-Phe-Lys-PABC-N(Me)—(CH2)2—N(Me)CO]-paclitaxel (.2HCl) [Prodrug 43]”, the ID50 in [1] is 0.062 µg/mL; in data set [2] it was 0.499 µg/mL; in [3] it was 0.119 µg/mL; in data set [4], 0.681 µg/mL; in data set [5] it was 0.117 µg/mL; in data set [6], 0.06 µg/mL. The ID50 in data set [7] amounted to 0.096 µg/mL. Besides, in [8] (setting [10]), the “formation of degradation products” value is given as “no formation of degradation products”.
With `CC(=O)OC1C(=O)C2(C)C(O)CC3OCC3(OC(C)=O)C2C(OC(=O)c2ccccc2)C2(O)CC(OC(=O)C(OC(=O)OCc3ccc(NC(=O)OCc4ccc(NC(=O)C(CCCCN)NC(=O)C(Cc5ccccc5)NC(=O)C(C)N)cc4)cc3)C(NC(=O)c3ccccc3)c3ccccc3)C(C)=C1C2(C)C.Cl.Cl` [Prodrug 22, 2′-[H-D-Ala-Phe-Lys-PABC-PABC]-paclitaxel (.2HCl)], the ID50 in data set [1] came to 0.007 µg/mL; in [2] it was 0.022 µg/mL; in [3], 0.005 µg/mL; in data set [4] it was 0.025 µg/mL; in data set [5], 0.005 µg/mL; in data set [6], 0.011 µg/mL. Moreover, the ID50 in data set [7] is 0.007 µg/mL. Also, the “formation of degradation products” value in data set [8] (setting [10]) was “no formation of degradation products”.
Consider “H-D-Ala-Phe-Lys-PABC-PABC-DOX.5.7HCl [Prodrug 20]”, for which the ID50 in data set [1] is 0.503 µg/mL; in [2], 0.896 µg/mL; in [3], 0.546 µg/mL; in data set [4], 2.303 µg/mL; in [5], 0.627 µg/mL; in [6], 0.242 µg/mL. The compound also returned an ID50 in data set [7] of 0.302 µg/mL. In addition, the “formation of degradation products” value in data set [8] (100–270 μM in 0.1 M Tris/HCl buffer (pH 7.3), 90 hours) is reported as “no formation of degradation products”.
`CC(=O)OC1C(=O)C2(C)C(O)CC3OCC3(OC(C)=O)C2C(OC(=O)c2ccccc2)C2(O)CC(OC(=O)C(OC(=O)OCC=Cc3ccc([N+](=O)[O-])cc3)C(NC(=O)c3ccccc3)c3ccccc3)C(C)=C1C2(C)C` (stereo not drawn) [Prodrug 1, 2′-[4-nitrocinnamyl carbonate]-paclitaxel]: the “paclitaxel release without reduction” value in data set [9] is “no paclitaxel was formed”.

Source of the values: patent US7223837B2, “Elongated and multiple spacers in activatible prodrugs” (Syntarga B.V., priority 2001, dated 2007).
